The numbers were not newly measured in patent publication US20100210719A1, “O-DESMETHYLVENLAFAXINE” (DR. REDDY'S LABORATORIES LTD., priority 2007, published 2010), which cites them from elsewhere.

For this series the following is noted: inferred from the major DSC endotherm at about 120° C. and Tg onset at 18° C. reported in U.S. Pat. No. 6,673,838.

Consider `CN(C)CC(c1ccc(O)cc1)C1(O)CCCCC1` (stereo not shown) [desvenlafaxine succinate], for which the “stability of the amorphous form” value is recorded as “highly unstable”.
